Measurements: patent US10681909B2, “Herbicidal triazoles” (FMC Corporation, priority 2014, dated 2020)

Key:
barnyardgrass [1] = experiment: Test A preemergence; format: in vivo, Echinochloa crus-galli; details: Echinochloa crus-galli, pre-emergence, 240 h, 0 to 100 scale (0 no effect, 100 complete control), read-out: Plant response rating, Barnyardgrass
In short: (§1)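 Pre- and postemergence spray tests in a loam soil–sand mixture: seeded soil received a directed spray, while established seedlings 2–10 cm high at the one- to two-leaf stage were treated over the top. Compounds were carried in non-phytotoxic solvent with surfactant.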

foxtail, giant = experiment: Test A preemergence; format: in vivo, Setaria faberii; details: Setaria faberi, pre-emergence, 240 h, 0 to 100 scale (0 no effect, 100 complete control), read-out: Plant response rating, Foxtail, Giant
In short: as §1

barnyardgrass [2] = experiment: Test A postemergence; format: in vivo, Echinochloa crus-galli; details: Echinochloa crus-galli, post-emergence, 240 h, 0 to 100 scale (0 no effect, 100 complete control), approx. 10 d, read-out: Plant response rating, Barnyardgrass
In short: as §1

corn = experiment: Test A postemergence; format: in vivo, Zea mays; details: Zea mays, post-emergence, 240 h, 0 to 100 scale (0 no effect, 100 complete control), approx. 10 d
In short: as §1

rice = experiment: Test B flooded paddy test; format: in vivo, Oryza sativa; details: Oryza sativa, 360 h, 250 g ai/ha, applied to paddy water at 2-leaf stage, visual rating after 13 to 15 d, scale 0 (no effect) to 100 (complete control), read-out: Plant response rating, Rice, Flood
In short: (§2)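 Pots were flooded to 3 cm above the soil at treatment, and compounds were applied directly into the paddy water. That depth was held throughout. After 13 to 15 d in a greenhouse, plants were rated visually against untreated controls.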

ducksalad = experiment: Test B flooded paddy test; format: in vivo, Heteranthera limosa; details: Heteranthera limosa, 360 h, 250 g ai/ha, applied to paddy water at 2-leaf stage, visual rating after 13 to 15 d, scale 0 (no effect) to 100 (complete control), read-out: Plant response rating, Ducksalad, Flood
In short: as §2

velvetleaf [3] = experiment: Test C preemergence; format: in vivo, Abutilon theophrasti; details: for Velvetleaf plant response rating (0 to 100): Preemergence, visual rating after 13 to 15 d
In short: (§3)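 Pre: seeded into loam/sand, sprayed same time. Post: plants in peat moss–vermiculite mix with starter nutrients and dolomitic limestone, treated at 1- to 4-leaf stage (2 to 18 cm). Formulation: non-phytotoxic solvent blend plus surfactant.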

crabgrass, large = experiment: Test C postemergence; format: in vivo, Digitaria sanguinalis
In short: as §3

johnsongrass = experiment: Test C postemergence; format: in vivo, Sorghum halepense
In short: as §3

morningglory = experiment: Test C postemergence; format: in vivo, Ipomoea coccinea
In short: as §3

pigweed = experiment: Test C postemergence; format: in vivo, Amaranthus retroflexus
In short: as §3

ragweed = experiment: Test C postemergence; format: in vivo, Ambrosia elatior
In short: as §3

velvetleaf [4] = experiment: Test C postemergence; format: in vivo, Abutilon theophrasti
In short: as §3

kochia = experiment: Test C postemergence; format: in vivo, Kochia scoparia
In short: as §3

CCCc1nc(-c2ccc(F)cc2)nn1Cc1ccnc(C(F)(F)F)c1 [Compound 6, 4-[[3-(4-fluorophenyl)-5-propyl-1H-1,2,4-triazol-1-yl]methyl]-2-(trifluoromethyl)pyridine]
pest or weed control at 125 g/ha (barnyardgrass [1]; 125 g ai/ha): 80% | pest or weed control at 500 g/ha (barnyardgrass [1]; 500 g ai/ha, approx. 10 d): 100% | pest or weed control at 125 g/ha (foxtail, giant; 125 g ai/ha): 100% | pest or weed control at 500 g/ha (foxtail, giant; 500 g ai/ha, approx. 10 d): 100% | pest or weed control at 125 g/ha (barnyardgrass [2]; 125 g ai/ha): 80% | pest or weed control at 500 g/ha (barnyardgrass [2]; 500 g ai/ha): 90% | Corn plant response rating (crop injury, 0 = no effect, 100 = complete kill) at 125 g/ha (corn; 125 g ai/ha): 40% | Corn plant response rating (crop injury, 0 = no effect, 100 = complete kill) at 500 g/ha (corn; 500 g ai/ha): 70% | plant injury at 250 g/ha (rice): 50% | pest or weed control at 250 g/ha (ducksalad): 70% | Velvetleaf plant response rating (0 to 100) (velvetleaf [3]; 31 g ai/ha): 20 | Velvetleaf plant response rating (0 to 100) (velvetleaf [3]; 62 g ai/ha): 75 | Plant response rating (scale of 0 to 100 where 0 is no effect and 100 is complete control) (velvetleaf [3]; Velvetleaf, preemergence, 250 g ai/ha): 100 | Plant response rating (scale of 0 to 100 where 0 is no effect and 100 is complete control) (crabgrass, large; 31 g ai/ha): 10 | Plant response rating (scale of 0 to 100 where 0 is no effect and 100 is complete control) (crabgrass, large; 62 g ai/ha): 15 | Plant response rating (scale of 0 to 100 where 0 is no effect and 100 is complete control) (crabgrass, large; 125 g ai/ha): 25 | Plant response rating (scale of 0 to 100 where 0 is no effect and 100 is complete control) (crabgrass, large; 250 g ai/ha): 65 | Plant response rating (scale of 0 to 100 where 0 is no effect and 100 is complete control) (johnsongrass; 31 g ai/ha): 10 | Plant response rating (scale of 0 to 100 where 0 is no effect and 100 is complete control) (johnsongrass; 62 g ai/ha): 10 | Plant response rating (scale of 0 to 100 where 0 is no effect and 100 is complete control) (johnsongrass; 125 g ai/ha): 15 | Plant response rating (scale of 0 to 100 where 0 is no effect and 100 is complete control) (johnsongrass; 250 g ai/ha): 35 | Plant response rating (scale of 0 to 100 where 0 is no effect and 100 is complete control) (morningglory; 31 g ai/ha): 90 | Plant response rating (scale of 0 to 100 where 0 is no effect and 100 is complete control) (morningglory; 62 g ai/ha): 95 | Plant response rating (scale of 0 to 100 where 0 is no effect and 100 is complete control) (morningglory; 125 g ai/ha): 98 | Plant response rating (scale of 0 to 100 where 0 is no effect and 100 is complete control) (pigweed; 31 g ai/ha): 80 | Plant response rating (scale of 0 to 100 where 0 is no effect and 100 is complete control) (pigweed; 62 g ai/ha): 80 | Plant response rating (scale of 0 to 100 where 0 is no effect and 100 is complete control) (pigweed; 125 g ai/ha): 85 | Plant response rating (scale of 0 to 100 where 0 is no effect and 100 is complete control) (pigweed; 250 g ai/ha): 85 | Plant response rating (scale of 0 to 100 where 0 is no effect and 100 is complete control) (ragweed; 31 g ai/ha): 75 | Plant response rating (scale of 0 to 100 where 0 is no effect and 100 is complete control) (ragweed; 62 g ai/ha): 75 | Plant response rating (scale of 0 to 100 where 0 is no effect and 100 is complete control) (ragweed; 250 g ai/ha): 80 | Plant response rating (scale of 0 to 100 where 0 is no effect and 100 is complete control) (velvetleaf [4]; 31 g ai/ha): 55 | Plant response rating (scale of 0 to 100 where 0 is no effect and 100 is complete control) (velvetleaf [4]; 62 g ai/ha): 55 | Plant response rating (scale of 0 to 100 where 0 is no effect and 100 is complete control) (velvetleaf [4]; 125 g ai/ha): 55 | Plant response rating (scale of 0 to 100 where 0 is no effect and 100 is complete control) (velvetleaf [4]; 250 g ai/ha): 55 | Plant response rating (scale of 0 to 100 where 0 is no effect and 100 is complete control) (kochia; 31 g ai/ha): 90 | Plant response rating (scale of 0 to 100 where 0 is no effect and 100 is complete control) (kochia; 62 g ai/ha): 90 | Plant response rating (scale of 0 to 100 where 0 is no effect and 100 is complete control) (kochia; 125 g ai/ha): 90 | Plant response rating (scale of 0 to 100 where 0 is no effect and 100 is complete control) (kochia; 250 g ai/ha): 90
